Results on 1 compound are retold here after patent US6169084A, “2-methyl-thieno-benzodiazepine formulation” (Eli Lilly and Company, priority 1998, dated 2001).

Structures are written as SMILES.

Data set [1] can be described thus: Discoloration of olanzapine in contact with excipients. The data set is classed as physicochemical. The conditions noted are these: contacted with certain excipients including powder blends; exacerbated by ambient air, elevated temperatures, moist environments.
For data set [2] the following is noted: dogs, male vs female; cited from earlier work.

As to `Cc1cc2c(s1)Nc1ccccc1N=C2N1CCN(C)CC1` [olanzapine, 2-methyl-4-(4-methyl-1-piperazinyl)-10H-thieno[2,3-b][1,5]benzodiazepine], the “discoloration (stability)” value in data set [1] is “undergoes undesirable discoloration”. Moreover, the “difference in the pharmacokinetic of olanzapine between the sexes” value in data set [2] is given as “no difference”.
